Test results as given in ChEMBL document CHEMBL5608113, “Targeting of CAF-induced therapy resistance in CRC organoid-stroma co-cultures” (2024).

Legend:
Assay type in all cases: functional, Homo sapiens
Conditions in all cases: Homo sapiens, read-out: Cell Viability; for viability at 10 µM: Concentration 10 uM; for viability at 1 µM: Concentration 1 uM
Colon cancer organoid [1] = assay: Targeting of F14 CAF-induced therapy resistance in O14 CRC organoid-stroma co-culture. Cell viability is reported without Gefitinib.
Colon cancer organoid [2] = assay: Targeting of F14 CAF-induced therapy resistance in O14 CRC organoid-stroma co-culture. Cell viability is reported with Gefitinib.
Colon cancer organoid [3] = assay: Targeting of F14 CAF-induced therapy resistance in O23 CRC organoid-stroma co-culture. Cell viability is reported without Gefitinib.
Colon cancer organoid [4] = assay: Targeting of F14 CAF-induced therapy resistance in O23 CRC organoid-stroma co-culture. Cell viability is reported with Gefitinib.
Colon cancer organoid [5] = assay: Targeting of F14 CAF-induced therapy resistance in O23 CRC organoid-stroma co-culture. Cell viability is reported with SN-38.

Structure (SMILES)	viability at 10 µM (Colon cancer organoid [1])	viability at 10 µM (Colon cancer organoid [2])	viability at 10 µM (Colon cancer organoid [3])	viability at 10 µM (Colon cancer organoid [4])	viability at 10 µM (Colon cancer organoid [5])	viability at 1 µM (Colon cancer organoid [1])	viability at 1 µM (Colon cancer organoid [2])	viability at 1 µM (Colon cancer organoid [3])	viability at 1 µM (Colon cancer organoid [4])	viability at 1 µM (Colon cancer organoid [5])
CN(C)C(=O)N1CC[C@H](NC2=Nc3cc(F)ccc3N(CC(F)F)c3ccc(Cl)cc32)C1	87.4%	61.6%	102%	43.7%	75.2%	–	–	–	–	–
Cc1cc(CN)cc(C)c1-c1ncn(C)c1-c1cncn1C	112%	80.2%	112%	73.9%	87.1%	–	–	–	–	–
N#CN1CC[C@H](C(=O)Nc2nc3c(s2)CN(C(=O)CN=[N+]=[N-])CC3)C1 [8RK64]	105%	33.4%	108%	43.1%	40.9%	–	–	–	–	–
O=C(NCc1ncc(C(F)(F)F)cc1Cl)c1ccc2c(c1)C1(CCS(=O)(=O)CC1)[C@@H](C1CC1)N2S(=O)(=O)c1ccc(F)cc1 [BAY-786]	115%	53%	138%	61.5%	106%	–	–	–	–	–
CNC(=O)Nc1ccc2c(c1)CC[C@@]21OC(=O)N(CC(=O)N(Cc2ccc(F)cc2)[C@@H](C)C(F)(F)F)C1=O [A-485]	–	–	–	–	–	65.4%	23.9%	60.4%	34.6%	51%
CNc1nc(-c2ccc3c(N)n[nH]c3c2)cc(N2C[C@@H](C(=O)NC3CCCCC3)CC[C@H]2C)n1	57.6%	17.9%	44.8%	24.3%	39.8%	–	–	–	–	–
O=C(N1CCS(=O)(=O)CC1)N1C[C@H](c2ccc(OC(F)(F)F)cc2)C[C@H](c2nc(C3CC3)no2)C1 [BAY-386]	103%	53.2%	120%	55.9%	74.8%	–	–	–	–	–
Cc1c(N2CCCC2)nc2ccc(Br)cc2c1C(=O)NC[C@H](CCC(=O)O)c1ccccc1Cl [BAY-6672]	138%	37.9%	81.2%	42.2%	58.4%	–	–	–	–	–
Cc1c(NC(=O)c2cc(C(N)=O)nc3cc(F)ccc23)c(C(F)(F)F)nn1Cc1ccc(C#N)cc1 [BAY-876]	16.3%	5.75%	43.8%	15%	39.6%	–	–	–	–	–
CN(C)C(=O)/C(C#N)=C/c1ccc(-c2nc3cnc4[nH]ccc4c3n2C2CCCCC2)o1	117%	47.2%	96.1%	56.7%	65.2%	–	–	–	–	–
COCCc1ccc(-c2c(C)nc3c(N4CCOCC4)ccnn23)cn1 [JNJ-42396302]	122%	65.9%	143%	97%	70.4%	–	–	–	–	–
COc1cc2c(cc1-c1c(C)noc1C)ncc1[nH]c(=O)n([C@H](C)c3ccccn3)c12	30.2%	9.93%	143%	78.1%	91.5%	–	–	–	–	–
CCCCN(CCCC)C(=O)CN1C[C@H](c2cc(OC)c3c(c2)OCO3)[C@@H](C(=O)O)[C@@H]1CC(C)(C)CCC	–	–	–	–	–	125%	44.1%	145%	50%	115%
Cc1ccc(-c2cnc([C@@]3(O)CC[C@H](C(=O)O)C(C)(C)C3)s2)cc1Nc1cccc(C(F)(F)F)n1 [MRL-SYKi-NC]	110%	48.6%	139%	51.3%	73.3%	–	–	–	–	–
CCCc1cc(C)[nH]c(=O)c1CNC(=O)c1cc(-c2ccnc(N3CCN(C)CC3)c2)cc2c1cnn2C(C)C	73%	63.9%	119%	74.3%	94.5%	–	–	–	–	–
